{
  "source": "patent US20250230193A1",
  "about": "“CYCLIC COMPOUND HAVING SELECTIVE KRAS INHIBITORY EFFECT ON HRAS AND NRAS” (CHUGAI SEIYAKU KABUSHIKI KAISHA, priority 2022, published 2025)",
  "key": {"[1]": {"target": "GDP-bound HRAS wild-type protein (Homo sapiens, UniProt P01112)", "sequence (P01112 whole entry)": "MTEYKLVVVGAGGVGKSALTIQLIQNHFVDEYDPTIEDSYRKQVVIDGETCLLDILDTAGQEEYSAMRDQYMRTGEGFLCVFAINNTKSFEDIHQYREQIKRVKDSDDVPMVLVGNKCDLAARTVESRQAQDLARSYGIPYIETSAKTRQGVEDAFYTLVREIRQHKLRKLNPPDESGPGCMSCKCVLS", "test": "Binding to HRAS by surface plasmon resonance (SPR), Single Cycle Kinetics"}, "[2]": {"target": "GDP-bound NRAS wild-type protein (Homo sapiens, UniProt P01111)", "sequence (P01111 whole entry)": "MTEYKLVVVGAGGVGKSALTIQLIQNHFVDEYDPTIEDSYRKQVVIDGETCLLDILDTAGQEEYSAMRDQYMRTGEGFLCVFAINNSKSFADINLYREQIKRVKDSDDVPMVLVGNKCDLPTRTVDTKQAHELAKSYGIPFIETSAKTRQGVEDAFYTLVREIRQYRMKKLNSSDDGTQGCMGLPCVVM", "test": "Binding to NRAS by surface plasmon resonance (SPR), Single Cycle Kinetics"}, "[3]": {"details": "GDP-bound HRAS wild-type vs GDP-bound KRAS wild-type, SPR"}, "[4]": {"details": "GDP-bound NRAS wild-type vs GDP-bound KRAS wild-type, SPR"}},
  "note": "Where a SMILES comes first, the peptide text is derived from it. Bridges are numbered along the chain shown (N, C = ends). [ ]: non-standard residue; d: D form. The star is where a group is joined. hPhe(3-Cl-4-CF3) = N[C@@H](CCc1ccc(C(F)(F)F)c(Cl)c1)C(=O)O; NPrPhe(4-CF3) = CCCN[C@@H](Cc1ccc(C(F)(F)F)cc1)C(=O)O; NMeGly(cPent) = CN[C@H](C(=O)O)C1CCCC1; Pro(4,4-F2) = O=C(O)[C@@H]1CC(F)(F)CN1; NEtPhe = CCN[C@@H](Cc1ccccc1)C(=O)O; Hyp = O=C(O)[C@@H]1C[C@@H](O)CN1; NMeD = CN[C@@H](CC(=O)O)C(=O)O; NMeL = CN[C@@H](CC(C)C)C(=O)O; Morpholide = C1CN(*)CCO1; NMeA = CN[C@@H](C)C(=O)O; Ac5c = NC1(C(=O)O)CCCC1; Aze = O=C(O)[C@@H]1CCN1; Ac4c = NC1(C(=O)O)CCC1; Sar = CNCC(=O)O",
  "data": [
    {"smiles": "CC[C@H](C)[C@@H]1NC(=O)[C@H](CC2CC2)N(C)C(=O)C[C@@H](C(=O)N(C)C)N(C)C(=O)[C@H](C2CCCC2)N(C)C(=O)C2(CC(C)(C)C2)NC(=O)[C@@H]2C[C@@H](C)CN2C(=O)[C@H](CCc2ccc(C(F)(F)F)c(OC)c2)NC(=O)CN(C)C(=O)[C@H](Cc2ccc(C)cc2)N2CC/C=C\\C[C@@H](C2=O)N(C)C(=O)CN(C)C1=O", "note": "[PP1901]", "values": [
      {"measurement": "HRAS/KRAS (ratio of KD value for HRAS to KD value for KRAS)", "setting": "[1]; [3]", "value": "B (a compound having 3 or more and less than 10 is denoted as B)"},
      {"measurement": "NRAS/KRAS (ratio of KD value for NRAS to KD value for KRAS)", "setting": "[2]; [4]", "value": "A (a compound having 10 or more and less than 20 is denoted as A)"}
    ]},
    {"smiles": "CCCN(C)C(=O)[C@@H]1CC(=O)N(C)[C@@H](CCOC)C(=O)N[C@@H]([C@@H](C)CC)C(=O)N(C)CC(=O)N(C)[C@H]2C/C=C\\CCN(C2=O)[C@@H](Cc2ccc(C(F)(F)F)cc2)C(=O)N(C)CC(=O)N[C@@H](CCc2ccc(C(F)(F)F)c(OC)c2)C(=O)N2C[C@H](OCC)C[C@H]2C(=O)NC2(CCC2)C(=O)N(C)[C@@H](C2CCCC2)C(=O)N1C", "note": "[PP2018]", "values": [
      {"measurement": "HRAS/KRAS (ratio of KD value for HRAS to KD value for KRAS)", "setting": "[1]; [3]", "value": "B (a compound having 3 or more and less than 10 is denoted as B)"},
      {"measurement": "NRAS/KRAS (ratio of KD value for NRAS to KD value for KRAS)", "setting": "[2]; [4]", "value": "A (a compound having 10 or more and less than 20 is denoted as A)"}
    ]},
    {"smiles": "CCCN1C(=O)CN(C)C(=O)CN(C)C(=O)[C@H]([C@@H](C)CC)NC(=O)[C@H](CC(C)C)N(C)C(=O)C[C@@H](C(=O)N2CCOCC2)N(C)C(=O)[C@H](C2CCCC2)N(C)C(=O)C2(CCC2)NC(=O)[C@@H]2CC(F)(F)CN2C(=O)[C@H](CCc2ccc(C(F)(F)F)c(Cl)c2)NC(=O)CN(C)C(=O)[C@@H]1Cc1ccc(C(F)(F)F)cc1", "note": "[PP0207] ([NMeL]I[Sar][Sar][NPrPhe(4-CF3)][Sar][hPhe(3-Cl-4-CF3)][Pro(4,4-F2)][Ac4c][NMeGly(cPent)][NMeD]-Morpholide; lactam N-11)", "values": [
      {"measurement": "HRAS/KRAS (ratio of KD for GDP-bound HRAS wild-type to KD for KRAS)", "setting": "[1]; KD ratio HRAS/KRAS, SPR", "value": "C (A compound having a KD ratio of 0.1 or more and less than 3 is denoted as C)"},
      {"measurement": "NRAS/KRAS (ratio of KD for GDP-bound NRAS wild-type to KD for KRAS)", "setting": "[2]; KD ratio NRAS/KRAS, SPR", "value": "B (a compound having 3 or more and less than 10 is denoted as B)"}
    ]},
    {"smiles": "CCC[C@H]1C(=O)N[C@@H]([C@@H](C)CC)C(=O)N(C)CC(=O)N(C)[C@H]2C/C=C\\CCN(C2=O)[C@@H](Cc2ccc(C)cc2)C(=O)N(C)CC(=O)N[C@@H](CCc2cc(F)c(C(F)(F)F)c(F)c2)C(=O)N2C[C@H](OCC)C[C@H]2C(=O)NC2(CC(C)(C)C2)C(=O)N(C)[C@@H](CC(C)(C)C)C(=O)N(C)[C@H](C(=O)N(C)C)CC(=O)N1C", "note": "[PP2706]", "values": [
      {"measurement": "HRAS/KRAS (ratio of KD value with respect to GDP-bound HRAS wild-type protein to KD value with respect to KRAS)", "setting": "[1]; KD ratio HRAS/KRAS, class symbols", "value": "B (a compound having 3 or more and less than 10 is denoted as B)"},
      {"measurement": "NRAS/KRAS (ratio of KD value with respect to GDP-bound NRAS wild-type protein to KD value with respect to KRAS)", "setting": "[2]; KD ratio NRAS/KRAS, class symbols", "value": "A (a compound having 10 or more and less than 20 is denoted as A)"}
    ]},
    {"smiles": "CCOC[C@H]1C(=O)N[C@@H]([C@@H](C)CC)C(=O)N(C)CC(=O)N(C)[C@H]2C/C=C\\CCN(C2=O)[C@@H](Cc2ccc(C)cc2)C(=O)N(C)CC(=O)N[C@@H](CCc2ccc(C(F)(F)F)c(Cl)c2)C(=O)N2C[C@H](OCC)C[C@H]2C(=O)NC2(CC(C)(C)C2)C(=O)N(C)[C@@H](C2CCCC2)C(=O)N(C)[C@H](C(=O)N(C)CC)CC(=O)N1C", "note": "[PP2401]", "values": [
      {"measurement": "HRAS/KRAS (ratio of KD value with respect to HRAS to KD value with respect to KRAS)", "setting": "[1]; SPR, GDP-bound HRAS wild-type vs GDP-bound KRAS wild-type", "value": "A (a compound having 10 or more and less than 20 is denoted as A)"},
      {"measurement": "NRAS/KRAS (ratio of KD value with respect to NRAS to KD value with respect to KRAS)", "setting": "[2]; SPR, GDP-bound NRAS wild-type vs GDP-bound KRAS wild-type", "value": "A (a compound having 10 or more and less than 20 is denoted as A)"}
    ]},
    {"smiles": "CCCN1C(=O)[C@@H]2CCN2C(=O)[C@H](C)N(C)C(=O)[C@H]([C@@H](C)CC)NC(=O)[C@H](CC(C)C)N(C)C(=O)C[C@@H](C(=O)N2CCOCC2)NC(=O)[C@H](C2CCCC2)N(C)C(=O)C2(CCC2)NC(=O)[C@@H]2C[C@@H](OCC)CN2C(=O)[C@H](CCc2ccc(C(F)(F)F)c(Cl)c2)NC(=O)CN(C)C(=O)[C@@H]1Cc1ccc(C(F)(F)F)cc1", "note": "[PP0348] ([NMeL]I[NMeA][Aze][NPrPhe(4-CF3)][Sar][hPhe(3-Cl-4-CF3)][Hyp](Et)[Ac4c][NMeGly(cPent)]D-Morpholide; lactam N-11)", "values": [
      {"measurement": "HRAS/KRAS (ratio of KD for GDP-bound HRAS wild-type to KD for KRAS)", "setting": "[1]; KD ratio HRAS/KRAS, SPR", "value": "B (a compound having 3 or more and less than 10 is denoted as B)"},
      {"measurement": "NRAS/KRAS (ratio of KD for GDP-bound NRAS wild-type to KD for KRAS)", "setting": "[2]; KD ratio NRAS/KRAS, SPR", "value": "C (A compound having a KD ratio of 0.1 or more and less than 3 is denoted as C)"}
    ]},
    {"smiles": "CC[C@H](C)[C@@H]1NC(=O)[C@H](CC(C)C)N(C)C(=O)C[C@@H](C(=O)N2CCOCC2)N(C)C(=O)[C@H](C2CCCC2)N(C)C(=O)C2(CCCC2)NC(=O)[C@@H]2CCCN2C(=O)[C@H](CCc2ccc(C(F)(F)F)c(Cl)c2)NC(=O)CN(C)C(=O)[C@H](Cc2ccccc2)N(CC)C(=O)CN(C)C(=O)CN(C)C1=O", "note": "[PP0210] ([NMeL]I[Sar][Sar][NEtPhe][Sar][hPhe(3-Cl-4-CF3)]P[Ac5c][NMeGly(cPent)][NMeD]-Morpholide; lactam N-11)", "values": [
      {"measurement": "HRAS/KRAS (ratio of KD for GDP-bound HRAS wild-type to KD for KRAS)", "setting": "[1]; KD ratio HRAS/KRAS, SPR", "value": "C (A compound having a KD ratio of 0.1 or more and less than 3 is denoted as C)"},
      {"measurement": "NRAS/KRAS (ratio of KD for GDP-bound NRAS wild-type to KD for KRAS)", "setting": "[2]; KD ratio NRAS/KRAS, SPR", "value": "C (A compound having a KD ratio of 0.1 or more and less than 3 is denoted as C)"}
    ]}
  ]
}
